From PubChem BioAssay (NCI)
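Five compound concentrations were applied to cells in 96-well plates for 48 hours; endpoints were derived by simple linear interpolation of the resulting dose-response curve. At the TGI there is no net growth.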

How the values were obtained:
Assay in all cases: DTP human tumour cell line panel, 48 h
786-0 renal = test system: 786-0 renal
A549 NSCLC = test system: A549 NSCLC
ACHN renal = test system: ACHN renal
CAKI-1 renal = test system: CAKI-1 renal
CCRF-CEM leukemia = test system: CCRF-CEM leukemia
COLO 205 colon = test system: COLO 205 colon
DLD-1 colon = test system: DLD-1 colon
DMS 114 small cell lung = test system: DMS 114 small cell lung
DMS 273 small cell lung = test system: DMS 273 small cell lung
EKVX NSCLC = test system: EKVX NSCLC
HCT-116 colon = test system: HCT-116 colon
HL-60(TB) leukemia = test system: HL-60(TB) leukemia
HOP-18 NSCLC = test system: HOP-18 NSCLC
HOP-62 NSCLC = test system: HOP-62 NSCLC
HOP-92 NSCLC = test system: HOP-92 NSCLC
HT29 colon = test system: HT29 colon
IGROV1 ovarian = test system: IGROV1 ovarian
K-562 leukemia = test system: K-562 leukemia
KM12 colon = test system: KM12 colon
KM20L2 colon = test system: KM20L2 colon
LOX IMVI melanoma = test system: LOX IMVI melanoma
LXFL 529 NSCLC = test system: LXFL 529 NSCLC
M14 melanoma = test system: M14 melanoma
M19-MEL melanoma = test system: M19-MEL melanoma
MALME-3M melanoma = test system: MALME-3M melanoma
MOLT-4 leukemia = test system: MOLT-4 leukemia
NCI-H226 lung = test system: NCI-H226 lung
NCI-H23 lung = test system: NCI-H23 lung
NCI-H460 lung = test system: NCI-H460 lung
NCI-H522 lung = test system: NCI-H522 lung
OVCAR-3 ovarian = test system: OVCAR-3 ovarian
OVCAR-4 ovarian = test system: OVCAR-4 ovarian
OVCAR-5 ovarian = test system: OVCAR-5 ovarian
OVCAR-8 ovarian = test system: OVCAR-8 ovarian
RPMI-8226 leukemia = test system: RPMI-8226 leukemia
RXF 393 renal = test system: RXF 393 renal
RXF-631 renal = test system: RXF-631 renal
SF-268 CNS = test system: SF-268 CNS
SF-295 CNS = test system: SF-295 CNS
SF-539 CNS = test system: SF-539 CNS
SK-MEL-2 melanoma = test system: SK-MEL-2 melanoma
SK-MEL-28 melanoma = test system: SK-MEL-28 melanoma
SK-MEL-5 melanoma = test system: SK-MEL-5 melanoma
SK-OV-3 ovarian = test system: SK-OV-3 ovarian
SN12C renal = test system: SN12C renal
SNB-19 CNS = test system: SNB-19 CNS
SNB-75 CNS = test system: SNB-75 CNS
SNB-78 CNS = test system: SNB-78 CNS
SR leukemia = test system: SR leukemia
SW-620 colon = test system: SW-620 colon
TK-10 renal = test system: TK-10 renal
U251 CNS = test system: U251 CNS
UACC-257 melanoma = test system: UACC-257 melanoma
UACC-62 melanoma = test system: UACC-62 melanoma
UO-31 renal = test system: UO-31 renal
XF 498 CNS = test system: XF 498 CNS
A498 renal = test system: A498 renal
HCC-2998 colon = test system: HCC-2998 colon
HCT-15 colon = test system: HCT-15 colon

## CCCCCCCCCc1cc(=O)c2ccc(O)cc2o1
786-0 renal
  TGI: > 100 µM
A549 NSCLC
  TGI: > 100 µM
ACHN renal
  TGI: > 100 µM
CAKI-1 renal
  TGI: 81.8 µM
CCRF-CEM leukemia
  TGI: 55.2 µM
COLO 205 colon
  TGI: > 100 µM
DLD-1 colon
  TGI: > 100 µM
DMS 114 small cell lung
  TGI: > 100 µM
DMS 273 small cell lung
  TGI: > 100 µM
EKVX NSCLC
  TGI: > 100 µM
HCT-116 colon
  TGI: > 100 µM
HL-60(TB) leukemia
  TGI: 38.2 µM
HOP-18 NSCLC
  TGI: > 100 µM
HOP-62 NSCLC
  TGI: > 100 µM
HOP-92 NSCLC
  TGI: 64.6 µM
HT29 colon
  TGI: > 100 µM
IGROV1 ovarian
  TGI: > 100 µM
K-562 leukemia
  TGI: > 100 µM
KM12 colon
  TGI: > 100 µM
KM20L2 colon
  TGI: > 100 µM
LOX IMVI melanoma
  TGI: > 100 µM
LXFL 529 NSCLC
  TGI: > 100 µM
M14 melanoma
  TGI: > 100 µM
M19-MEL melanoma
  TGI: > 100 µM
MALME-3M melanoma
  TGI: > 100 µM
MOLT-4 leukemia
  TGI: > 100 µM
NCI-H226 lung
  TGI: > 100 µM
NCI-H23 lung
  TGI: > 100 µM
NCI-H460 lung
  TGI: > 100 µM
NCI-H522 lung
  TGI: > 100 µM
OVCAR-3 ovarian
  TGI: > 100 µM
OVCAR-4 ovarian
  TGI: > 100 µM
OVCAR-5 ovarian
  TGI: > 100 µM
OVCAR-8 ovarian
  TGI: > 100 µM
RPMI-8226 leukemia
  TGI: > 100 µM
RXF 393 renal
  TGI: > 100 µM
RXF-631 renal
  TGI: > 100 µM
SF-268 CNS
  TGI: > 100 µM
SF-295 CNS
  TGI: > 100 µM
SF-539 CNS
  TGI: > 100 µM
SK-MEL-2 melanoma
  TGI: > 100 µM
SK-MEL-28 melanoma
  TGI: > 100 µM
SK-MEL-5 melanoma
  TGI: > 100 µM
SK-OV-3 ovarian
  TGI: > 100 µM
SN12C renal
  TGI: > 100 µM
SNB-19 CNS
  TGI: > 100 µM
SNB-75 CNS
  TGI: 56.4 µM
SNB-78 CNS
  TGI: > 100 µM
SR leukemia
  TGI: > 100 µM
SW-620 colon
  TGI: > 100 µM
TK-10 renal
  TGI: 91.3 µM
U251 CNS
  TGI: > 100 µM
UACC-257 melanoma
  TGI: > 100 µM
UACC-62 melanoma
  TGI: > 100 µM
UO-31 renal
  TGI: > 100 µM
XF 498 CNS
  TGI: > 100 µM

## COc1ccc(CC(C)N)cc1 (centres undefined)
786-0 renal
  TGI: > 100 µM
A498 renal
  TGI: > 100 µM
A549 NSCLC
  TGI: > 100 µM
ACHN renal
  TGI: > 100 µM
CAKI-1 renal
  TGI: > 100 µM
CCRF-CEM leukemia
  TGI: > 100 µM
COLO 205 colon
  TGI: > 100 µM
DLD-1 colon
  TGI: > 100 µM
DMS 114 small cell lung
  TGI: > 100 µM
DMS 273 small cell lung
  TGI: > 100 µM
EKVX NSCLC
  TGI: > 100 µM
HCC-2998 colon
  TGI: > 100 µM
HCT-116 colon
  TGI: > 100 µM
HCT-15 colon
  TGI: > 100 µM
HL-60(TB) leukemia
  TGI: > 100 µM
HOP-18 NSCLC
  TGI: > 100 µM
HOP-62 NSCLC
  TGI: > 100 µM
HOP-92 NSCLC
  TGI: > 100 µM
HT29 colon
  TGI: > 100 µM
IGROV1 ovarian
  TGI: > 100 µM
K-562 leukemia
  TGI: > 100 µM
KM12 colon
  TGI: > 100 µM
KM20L2 colon
  TGI: > 100 µM
LOX IMVI melanoma
  TGI: > 100 µM
LXFL 529 NSCLC
  TGI: > 100 µM
M14 melanoma
  TGI: > 100 µM
MALME-3M melanoma
  TGI: > 100 µM
MOLT-4 leukemia
  TGI: > 100 µM
NCI-H226 lung
  TGI: > 100 µM
NCI-H23 lung
  TGI: > 100 µM
NCI-H460 lung
  TGI: > 100 µM
NCI-H522 lung
  TGI: > 100 µM
OVCAR-3 ovarian
  TGI: > 100 µM
OVCAR-4 ovarian
  TGI: > 100 µM
OVCAR-5 ovarian
  TGI: > 100 µM
OVCAR-8 ovarian
  TGI: > 100 µM
RPMI-8226 leukemia
  TGI: > 100 µM
RXF 393 renal
  TGI: > 100 µM
RXF-631 renal
  TGI: > 100 µM
SF-268 CNS
  TGI: > 100 µM
SF-295 CNS
  TGI: > 100 µM
SF-539 CNS
  TGI: > 100 µM
SK-MEL-2 melanoma
  TGI: > 100 µM
SK-MEL-28 melanoma
  TGI: > 100 µM
SK-MEL-5 melanoma
  TGI: > 100 µM
SK-OV-3 ovarian
  TGI: > 100 µM
SN12C renal
  TGI: > 100 µM
SNB-19 CNS
  TGI: > 100 µM
SNB-75 CNS
  TGI: > 100 µM
SNB-78 CNS
  TGI: > 100 µM
SR leukemia
  TGI: > 100 µM
SW-620 colon
  TGI: > 100 µM
TK-10 renal
  TGI: > 100 µM
U251 CNS
  TGI: > 100 µM
UACC-257 melanoma
  TGI: > 100 µM
UACC-62 melanoma
  TGI: > 100 µM
UO-31 renal
  TGI: > 100 µM
XF 498 CNS
  TGI: > 100 µM
